Assay results: the NIST ThermoML archive (doi:10.1021/je800077r)

Columns and labels:
[1] = xn = mol fraction of the nth substance listed; conditions: 101 kPa, Liquid; for speed of sound: Sing-around technique in a fixed-path interferometer; for mass density: Vibrating tube method
[2] = refractive index (Na D-line) (dimensionless); xn = mol fraction of the nth substance listed; conditions: 101 kPa, Liquid, Standard Abbe refractometry

CCCCCCn1cc[n+](C)c1.F[P-](F)(F)(F)(F)F [1-hexyl-3-methylimidazolium hexafluorophosphate] + CCOC(C)=O
Conditions	mass density, 293.15 K [kg/m3]	mass density, 298.15 K [kg/m3]	mass density, 303.15 K [kg/m3]	refractive index, 293.15 K	refractive index, 298.15 K	refractive index, 303.15 K	speed of sound, 293.15 K [m/s]	speed of sound, 298.15 K [m/s]	speed of sound, 303.15 K [m/s]
[1], x1 = 0.0506	952.6	946.8	941	–	–	–	1185	1163	1142
[1], x1 = 0.104	998.7	993.2	987.6	–	–	–	1210	1189	1169
[1], x1 = 0.1978	1063.8	1058.6	1053.4	–	–	–	1252	1233	1215
[1], x1 = 0.2924	1114.6	1109.8	1104.9	–	–	–	1288	1271	1254
[1], x1 = 0.4549	1179.7	1175.2	1170.5	–	–	–	1335	1320	1305
[1], x1 = 0.4974	1193.3	1188.9	1184.2	–	–	–	1346	1331	1317
[1], x1 = 0.5904	1219.5	1215.2	1210.7	–	–	–	1366	1352	1338
[1], x1 = 0.7015	1245.8	1241.5	1237.2	–	–	–	1387	1374	1361
[1], x1 = 0.7926	1263.8	1259.8	1255.6	–	–	–	1403	1390	1378
[1], x1 = 0.8941	1281.6	1277.6	1273.8	–	–	–	1420	1407	1395
[1], x1 = 0.9459	1289.8	1285.8	1282	–	–	–	1429	1415	1403
[1], x1 = 1	1297.9	1293.7	1289.6	–	–	–	1438	1424	1411
[2], x1 = 0.0506	–	–	–	1.38064	1.37838	1.37606	–	–	–
[2], x1 = 0.104	–	–	–	1.3874	1.38537	1.38312	–	–	–
[2], x1 = 0.1978	–	–	–	1.39645	1.39415	1.39194	–	–	–
[2], x1 = 0.2924	–	–	–	1.402	1.40007	1.39821	–	–	–
[2], x1 = 0.4549	–	–	–	1.40845	1.4069	1.40523	–	–	–
[2], x1 = 0.4974	–	–	–	1.40969	1.40821	1.40664	–	–	–
[2], x1 = 0.5904	–	–	–	1.41237	1.41083	1.40893	–	–	–
[2], x1 = 0.7015	–	–	–	1.41438	1.41296	1.4115	–	–	–
[2], x1 = 0.7926	–	–	–	1.41592	1.41446	1.41307	–	–	–
[2], x1 = 0.8941	–	–	–	1.41731	1.41594	1.41454	–	–	–
[2], x1 = 0.9459	–	–	–	1.41797	1.41662	1.41526	–	–	–
[2], x1 = 1	–	–	–	1.41923	1.41787	1.41643	–	–	–

CCOC(C)=O [ethyl acetate] + CCCCCC
Conditions	mass density, 293.15 K [kg/m3]	mass density, 298.15 K [kg/m3]	mass density, 303.15 K [kg/m3]	refractive index, 293.15 K	refractive index, 298.15 K	refractive index, 303.15 K	speed of sound, 293.15 K [m/s]	speed of sound, 298.15 K [m/s]	speed of sound, 303.15 K [m/s]
[1], x2 = 0	900.5	894.4	888.2	–	–	–	1162	1141	1111
[1], x2 = 0.0469	884.3	878.2	872.2	–	–	–	1152	1129	1099
[1], x2 = 0.0969	868	862	855.9	–	–	–	1141	1119	1089
[1], x2 = 0.1898	838.9	833.1	827.3	–	–	–	1125	1103	1074
[1], x2 = 0.2962	808.6	803	797.3	–	–	–	1111	1089	1061
[1], x2 = 0.3907	783.5	778	772.4	–	–	–	1101	1079	1053
[1], x2 = 0.5028	756	750.7	745.3	–	–	–	1093	1071	1046
[1], x2 = 0.598	734.5	729.3	724.1	–	–	–	1090	1067	1042
[1], x2 = 0.6995	713.1	708.1	703.1	–	–	–	1088	1066	1041
[1], x2 = 0.803	693.3	688.4	683.5	–	–	–	1089	1067	1043
[1], x2 = 0.9005	675.8	671.1	666.4	–	–	–	1093	1071	1047
[1], x2 = 0.9514	667.3	662.7	658.1	–	–	–	1096	1074	1051
[2], x2 = 0	–	–	–	1.37241	1.36977	1.36712	–	–	–
[2], x2 = 0.0469	–	–	–	1.37193	1.36926	1.3666	–	–	–
[2], x2 = 0.0969	–	–	–	1.37157	1.3689	1.36622	–	–	–
[2], x2 = 0.1898	–	–	–	1.37105	1.36832	1.36559	–	–	–
[2], x2 = 0.2962	–	–	–	1.3706	1.36785	1.36513	–	–	–
[2], x2 = 0.3907	–	–	–	1.37053	1.36776	1.365	–	–	–
[2], x2 = 0.5028	–	–	–	1.37066	1.36789	1.36511	–	–	–
[2], x2 = 0.598	–	–	–	1.37101	1.36823	1.36547	–	–	–
[2], x2 = 0.6995	–	–	–	1.3718	1.36896	1.36611	–	–	–
[2], x2 = 0.803	–	–	–	1.37266	1.3698	1.36689	–	–	–
[2], x2 = 0.9005	–	–	–	1.37381	1.37096	1.36803	–	–	–
[2], x2 = 0.9514	–	–	–	1.3744	1.37157	1.36866	–	–	–
